As usually defined, the EC50 is the midpoint of the concentration-response curve. The CC50 is the concentration giving 50% cytotoxicity.

For series [1], the system named is T. cruzi (Tulahuen strain). Description: microbe, parasite or virus in culture. The settings on record: for activity at 10 µM: Table S2, read-out: T. cruzi % growth @ 10 uM (Amastigotes); for EC50: read-out: T. cruzi EC50. It is filed as cell-based, Trypanosoma cruzi. The procedure, abridged: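 Tulahuen parasites expressing beta-galactosidase were added (1×10^4 trypomastigotes/well) to 3T3 fibroblasts plated 24 h earlier, 4 h before compound (10 µM final).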

The next series has as its system 3T3 fibroblast cells. As to the kind of experiment: cells. It is filed as cell-based, murine. To be noted: for activity at 10 µM: Mus musculus, NIH3T3, 72 h, Table S2, read-out: Mammalian (3T3) cell % growth at 10 uM; for CC50: 3T3 fibroblasts, 72 hours, separate assays separated by semicolons, read-out: Mammalian cell CC50.
The next series can be described thus: in vitro. It is filed as cell-based, murine. To be noted: mouse.
Series [2] has as its system T. cruzi (Tulahuen strain). As to the kind of experiment: Mouse model of acute T. cruzi infection. It is filed as in vivo, BALB/c mice. The settings on record: oral gavage days 7-11 post-infection, doses of Table 5. How it is done: Age 8–10 week-old BALB/c female mice were obtained from Harlan Laboratories. Mice were infected with 1×10^4 tissue culture derived wild-type trypomastigotes of the Tulahuen strain by subcutaneous injection on day 0. They were administered test drugs in groups of five by oral gavage on days 7–11. All drugs were dissolved in vehicle composed of sodium carboxymethylcellulose 0.5% w/v, benzyl alcohol 0.5% v/v, Tween 80 0.4% v/v diluted in 0.9% aqueous NaCl solution. Parasitemia was quantified by examining tail blood specimens at times points indicated in Figures 2, 3, S4, and S5 as previously described.
Selected drugs identified in the above screens were tested alone or in combination in the mouse model of T. cruzi infection. In the first experiment, we focused on posaconazole and benznidazole because of their advanced clinical status for treating Chagas disease. Since benznidazole and posaconazole are known to have curative activity as monotherapies, we used sub-curative doses so that additive or synergistic interactions could be detected when used in combinations. The other drugs were administered at doses described in the literature for treating mice. Briefly, mice were gavaged once or twice daily with a given drug or combination on days 7–11 post-infection. We conducted a second experiment (Figure 3) examining the same drugs with the purpose of confirming and expanding upon the initial results shown in Figure 2.

Another series has as its system T. cruzi amastigotes. As to the kind of experiment: Combination screen of drug pairs at EC25. It is filed as cell-based, Trypanosoma cruzi. To be noted: at EC25, alone or in combination. How it is done: […] compounds were selected for testing in combinations. All two-way combinations were tested (300 experiments). First, EC25 concentrations were determined for the individual compounds against T. cruzi amastigotes as described above. To test for synergy, compounds were evaluated in quadruplicate individually at the experimentally determined EC25, and in combination with other compounds at each respective EC25 concentration (further explained in the Discussion section). For inclusion in downstream analysis, each individual compound in a pair was required to inhibit 25±10% of growth in positive control (untreated) wells. If not in this range, the experiment was repeated. The measured growth of T. cruzi amastigotes was compared to the predicted effect of the combination as follows. Assuming a simple additive effect, the predicted inhibition of the drug pairs was expected to be the product of the percent-growths of each compound when tested alone. For example, if compound A gave 75% growth of the control and compound B gave 80% of the control growth, then the combination would be predicted to be 60% (i.e., 75%×80% = 60%).
Cells in green indicate a greater effect than predicted (“synergism”) and the squares in red indicate a lesser effect than predicated (“antagonism”).

The subject of a further series is T. brucei. To be noted: cited from earlier work.
The mark [3] stands for this setting: Trypanosoma cruzi, TULAHUEN, Fibroblast, 120 h.
Setting [4] is: Trypanosoma cruzi, TULAHUEN, Fibroblast, 120 h, intracellular amastigotes, 5 days, separate assays separated by semicolons.
Where [5] appears, read: Trypanosoma cruzi, TULAHUEN, Fibroblast, Table S2, amastigotes.
Setting [6] is: average mammalian cell CC50 divided by average T. cruzi EC50.
Setting [7] is: 3T3 fibroblasts, 72 hours, separate assays separated by semicolons, read-out: Mammalian cell CC50.
Where [8] appears, read: intracellular amastigotes, 5 days, separate assays separated by semicolons.

Structures are written as SMILES. “Also recorded” adds a separate entry of the source. Where two headings read alike, the source gives them in different places. Bounds are passed on as bounds.

Regarding `N=C(N)c1ccc(OCCCCCOc2ccc(C(=N)N)cc2)cc1` [Pentamidine, 2-hydroxyethane-1-sulfonic acid; 4-{[5-(4-carbamimidoylphenoxy)pentyl]oxy}benzene-1-carboximidamide], the activity at 10 µM stood at 17.6% in series [1] (setting [3]) and 94.8% in the series on 3T3 fibroblast cells. Also, the EC50 amounted to 0.181 µM in series [1] (setting [4]) and 0.18 µM in series [1] (setting [5]). Also, the Selectivity index in series [1] (setting [6]) was above 276. For the same compound, the CC50 in the series “in vitro” (setting [7]) was above 50000 nM.
Turning to `Cl.OC(c1cc(C(F)(F)F)nc2c(C(F)(F)F)cccc12)C1CCCCN1` (stereo not shown) [Mefloquine, [2,8-bis(trifluoromethyl)quinolin-4-yl](piperidin-2-yl)methanol hydrochloride], the activity at 10 µM in series [1] (setting [3]) turned out to be 2.6%; in the series with 3T3 fibroblast cells, 94.7%. For the same compound, the EC50 in series [1] (setting [4]) is 6.1 µM. The same compound registered a Selectivity index in series [1] (setting [6]) of 2.0. Further, the CC50 in “in vitro” (setting [7]) worked out at 12100 nM.
In the case of `CC[C@@H]([C@H](C)O)n1ncn(-c2ccc(N3CCN(c4ccc(OC[C@@H]5CO[C@@](Cn6cncn6)(c6ccc(F)cc6F)C5)cc4)CC3)cc2)c1=O` [Posaconazole], the parasitemia result in series [2] is reported as “some attenuation of parasitemia”.
On to `CN1CCCC1CCOC(C)(c1ccccc1)c1ccc(Cl)cc1` (stereo not shown) [Clemastine, 2-{2-[1-(4-chlorophenyl)-1-phenylethoxy]ethyl}-1-methylpyrrolidine], for which, in series [2], the parasitemia result is “no differences compared to the vehicle treated mice”. Also, in the series on T. cruzi amastigotes, the “% of normal growth” value is on record as 74%. In the series on 3T3 fibroblast cells, the activity at 10 µM amounted to 93.2%.
With `NCCC(O)(P(=O)(O)O)P(=O)(O)O` [Pamidronate], the EC50 in series [1] (setting [4]) is 3 µM. Besides, the Selectivity index in series [1] (setting [6]) is recorded as 8.6. In “in vitro” (setting [7]), the CC50 came to 25700 nM.
`CN(C)CC/C=C1/c2ccccc2Sc2ccc(Cl)cc21` [Chlorprothixene, {3-[(9Z)-2-chloro-9H-thioxanthen-9-ylidene]propyl}dimethylamine] came in with a Selectivity index in series [1] of 5.2. The values for the activity at 10 µM (in series [1] (setting [3]); in the series with 3T3 fibroblast cells) were 1.8% and 97.1%, respectively. Moreover, the figures for the EC50 in series [1] (setting [4]) and in series [1] (setting [8]) were 2.35 µM and 2.6 µM, respectively. Further, the CC50 in the series “in vitro” (setting [7]) came out at 12900 nM.
Turning to `CCOC(=O)C1=C(COCCN)NC(C)=C(C(=O)OC)C1c1ccccc1Cl.O=S(=O)(O)c1ccccc1` (stereo not shown) [Amlodipine, 3-ethyl 5-methyl 2-[(2-aminoethoxy)methyl]-4-(2-chlorophenyl)-6-methyl-1,4-dihydropyridine-3,5-dicarboxylate; benzenesulfonic acid], the Selectivity index in series [1] is 11.8. The activity at 10 µM was determined as 13.3% in series [1] (setting [3]) and 100% with 3T3 fibroblast cells. Besides, the EC50 in series [1] (setting [4]) is 1.1 µM. Besides, the parasitemia result in series [2] was “no differences compared to the vehicle treated mice; also recorded: slight effects”. This compound displayed a CC50 in “in vitro” (Mammalian cell CC50 (nM)) of 13000 nM.
`O=C(Cn1ccnc1[N+](=O)[O-])NCc1ccccc1` [Benznidazole]: the EC50 was determined as 0.65 µM in series [1] (setting [4]) and 0.6 µM in series [1] (setting [8]). This compound gave a Selectivity index in series [1] (setting [6]) above 40. Besides, in series [2], the parasitemia entry is given as “some attenuation of parasitemia”. In “in vitro” (setting [7]), the CC50 is above 25000 nM.
Turning to `Oc1ncnc2[nH]ncc12` [Allopurinol], in series [1], the Selectivity index is on record as above 17.9. Also, in series [1] (setting [4]), the EC50 turned out to be 2.8 µM. In addition, the parasitemia result in series [2] is given as “slight effects”. The CC50 in “in vitro” (setting [7]) was above 50000 nM.
On to `Clc1ccc(C(OCCN2CCCCC2)c2ccccc2)cc1` (stereo not shown) [Cloperastine, 1-{2-[(4-chlorophenyl)(phenyl)methoxy]ethyl}piperidine], for which the activity at 10 µM in series [1] (setting [3]) turned out to be 1.2%; in the series with 3T3 fibroblast cells, 100%. The values for the EC50 in series [1] (setting [4]) and in series [1] (setting [8]) were 5.8 µM and 5.6 µM, respectively. Moreover, the Selectivity index in series [1] (setting [6]) was found to be 3.8. The “% of normal growth” value in the series with T. cruzi amastigotes is listed as 79%. The CC50 in “in vitro” (setting [7]) is 21400 nM.
As for `CN(C)CCC=C1c2ccccc2CCc2ccccc21` [Amitriptyline, dimethyl(3-{tricyclo[9.4.0.0^{3,8}]pentadeca-1(15),3,5,7,11,13-hexaen-2-ylidene}propyl)amine], the activity at 10 µM in series [1] (setting [3]) came out at 15.7%; with 3T3 fibroblast cells, 100%. Further, the EC50 in series [1] (setting [4]) was 3.56 µM; in series [1] (setting [8]), 6.6 µM. This compound returned a Selectivity index in series [1] (setting [6]) of 5.7. For the same compound, the CC50 is 22 µM with 3T3 fibroblast cells and 36300 nM in the series “in vitro” (setting [7]).
`CSc1ccc2c(c1)N(CCC1CCCCN1C)c1ccccc1S2` (stereo not shown) [Thioridazine, 10-[2-(1-methylpiperidin-2-yl)ethyl]-2-(methylsulfanyl)-10H-phenothiazine]: the activity at 10 µM in series [1] (setting [3]) was 19.1%; with 3T3 fibroblast cells it was 45.7%. Also, the figures for the CC50 in the series on 3T3 fibroblast cells and in “in vitro” (setting [7]) were 8.66 µM and 6200 nM, respectively.
`Nc1nc(N)c2nc(-c3ccccc3)c(N)nc2n1` [Triamterene, 6-phenylpteridine-2,4,7-triamine]: the Selectivity index in series [1] is 11.4. Besides, the activity at 10 µM in series [1] (setting [3]) amounted to 17.3%; in the series on 3T3 fibroblast cells, 72.7%. Besides, the EC50 turned out to be 1.66 µM in series [1] (setting [4]) and 18.9 µM in series [1] (setting [5]). In addition, the “activity against T. brucei” value in the series with T. brucei (no reference given) is given as 48 µM. Also, the figures for the CC50 with 3T3 fibroblast cells and in “in vitro” (setting [7]) were 14.8 µM and 23000 nM, respectively.
For the compound `CCc1nc(N)nc(N)c1-c1ccc(Cl)cc1` [Pyrimethamine, 5-(4-chlorophenyl)-6-ethylpyrimidine-2,4-diamine], the activity at 10 µM was determined as 24.2% in series [1] (setting [3]) and 97.6% with 3T3 fibroblast cells. Besides, the EC50 in series [1] (setting [4]) is 3.82 µM; in series [1] (Trypanosoma cruzi, TULAHUEN, Fibroblast) it was 3.8 µM; in the series on T. brucei it was 17 µM. This compound had a Selectivity index in series [1] (setting [6]) of 7.5. The CC50 in the series “in vitro” (setting [7]) turned out to be 28500 nM.
As to `CCC(C)(C)C(=O)OC1CC(C)C=C2C=CC(C)C(CCC3CC(O)CC(=O)O3)C21` (stereo not shown) [Simvastatin, 8-[2-(4-hydroxy-6-oxooxan-2-yl)ethyl]-3,7-dimethyl-1,2,3,7,8,8a-hexahydronaphthalen-1-yl 2,2-dimethylbutanoate], the EC50 in series [1] (setting [4]) was 0.4 µM. Moreover, the CC50 at 72 h in the series “in vitro” (setting [7]) was found to be 4 µM.
On to `CN(C)c1ccc(O)c2c1CC1CC3C(N(C)C)C(O)=C(C(N)=O)C(=O)C3(O)C(O)=C1C2=O.Cl` (stereo not shown) [Minocycline, 4,7-bis(dimethylamino)-3,10,12,12a-tetrahydroxy-1,11-dioxo-1,4,4a,5,5a,6,11,12a-octahydrotetracene-2-carboxamide hydrochloride], for which the Selectivity index in series [1] is listed as above 5.1. For the same compound, the activity at 10 µM in series [1] (setting [3]) is 10.2%; in the series with 3T3 fibroblast cells, 83.2%. For the same compound, the EC50 in series [1] (setting [4]) is 9.8 µM. The CC50 in “in vitro” (setting [7]) was above 50000 nM.
Consider `Cl.Fc1ccc(C2CCNCC2COc2ccc3c(c2)OCO3)cc1` (stereo not shown) [Paroxetine, 3-[(2H-1,3-benzodioxol-5-yloxy)methyl]-4-(4-fluorophenyl)piperidine hydrochloride], for which the Selectivity index in series [1] was 4.2. Besides, the activity at 10 µM in series [1] (setting [3]) amounted to 6.8%; with 3T3 fibroblast cells, 100%. For the same compound, the EC50 in series [1] (setting [4]) is 3.3 µM; in series [1] (setting [8]) it was 5.6 µM. The compound also yielded a CC50 in the series “in vitro” (Mammalian cell CC50 (nM)) of 18800 nM.
For the compound `CN(C/C=C/C#CC(C)(C)C)Cc1cccc2ccccc12` [Terbinafine], the Selectivity index in series [1] is 2.9. Also, the EC50 in series [1] (setting [4]) is 17.4 µM. In addition, the CC50 in “in vitro” (setting [7]) came to 51000 nM.

These data come from article PMC4102417 (PLoS Neglected Tropical Diseases, 2014).
